Measurements reported in patent US20170304336A1, “COMBINATION” (priority 2014, published 2017).
Several values for one entry are separate records, joined by “and”; a condition that tells them apart may be missing. Equal entries are not always repeated.

How the values were obtained:
[1] = system: experimental rat hypercholesterolemia model; assay: Lipid spectrum of blood in experimental rat hypercholesterolemia model; format: in vivo, male rats of Wistar line; settings: dose 108 mg
Experimental: The animals used were male rats of Wistar line. […] The proposed model using rats as the experimental animals is a reproducible standard model for evaluation of hypocholesterolemic effect.
(§1) Evaluation of hypocholesterolemic efficacy and safety of pharmaceutical combination was performed in vivo in experimental rat hypercholesterolemia model.
(§2) For 90 days the studied animals received hypercholesterol diet for pathology induction. The diet included Cholesterol+Cholic acid+Overheated fats (deep fat).
For 90 days the animals received the said ration ad libitum (30 g feed per animal). Development of hypercholesterolemia in animals was evaluated based on changes in lipid spectrum parameters on Day 30 of the study.
(§3) Drugs were introduced intragastrically with an esophageal bougie daily on Day 31-90 of the study at the same time of day.
Biochemical parameters and activity of blood serum enzymes (total cholesterol (CHS), LDL-CHS, HDL-CHS, triglycerides.
1.0-1.84 ml blood samples for the study of biochemical parameters were taken from tail vein of rats. Blood samples were taken from the animals after 14-15-hour's fasting at same time of day (9.00-11.00). For biochemical parameters tests a Biochemical Analyzer A-25 (Biosystems, Spain) was used. […]

[2] = system: experimental rat hypercholesterolemia model; assay: Biochemical blood analysis (drug toxicity parameters) in rat hypercholesterolemia model; format: in vivo, male rats of Wistar line
Experimental: as §1, §2, §3
Biochemical parameters and activity of serum enzymes (aspartate- and alanine aminotransferase, creatine phosphokinase, urea, serum amylase, total bilirubin, direct bilirubin, indirect bilirubin, serum glucose, cations K^+, Na^+).
1.0-1.84 ml blood samples for the study of biochemical parameters were taken from tail vein of rats. Blood samples were taken from the animals after 14-15-hour's fasting at same time of day (9.00-11.00). For biochemical parameters tests a Biochemical Analyzer A-25 (Biosystems, Spain) was used.
Vol. 4. pp. 1794-1798; Pearlman F C and Lee R T Y. Clin Chem 1974, 20, 447-453; Zoppi F et al, Peracino A., Fenili D., Marcovina S. and Ramella C. Giorn It Chim Cl. […] C. et al Clin Chem. 1974. Vol. 20. pp. 470-475; and in Meiattini F., et al, Clin Chem. 1978. Vol. 24. pp. 2161-2165 (total cholesterol); Warnick G R et al. Clin Chem 2001, 47, 1579-96 (HDL/LDL); Bucolo G and David H. Clin Chem. 1973.-Vol. 19. pp. 476-482; and in Fossati P. and, Prencipe L., Clin Chem. 1982. Vol. 28. pp. 2077-2080 (triglycerides); Trinder P. Ann Clin Biochem. 1969. Vol. 6. pp. 24-27).

[3] = Mass coefficients of organs (pancreas, liver, kidneys) of rats; format: in vivo, male rats of Wistar line; settings: for weight coefficient, Kidneys / weight coefficient, Liver: in %
Experimental: To calculate mass coefficients the pancreas, liver and kidneys of the animals were extracted. The organs were weighed and the mass coefficients were calculated by the following formula:
Mass coefficient=(organ weight/animal body weight)×100%

[4] = Dynamics of body weight of rabbits (Schemes A and B); format: in vivo, male rabbits of Californian breed; settings: for Body weight: Scheme A, M ± SEM
Text: The animals used in this experiment were involved reproductive male rabbits of Californian breed. 144 rabbits were used. The weight of the animals at the beginning of the trial ranged from 2.5 to 3 kg; the animals were 8 weeks old. Before the study the laboratory animals were contained for 27 and for 37 days in the separate coops for adaptation. During this period, clinical condition of animals was controlled every day by visual inspection. The criteria of the inclusion of animals in the experiment were health and body weight.
The introduction of drugs under two schemes was used to determine the mechanism of action of the studied drugs and the impact on the different stages of atherosclerosis.
Cholesterol administered daily in an oil solution at 0.3 g/kg of animal body weight, one time, 4 hours after drug administration. Cholesterol was dissolved in hot sunflower oil and administered to the animals through noninvasive probe into the stomach. The duration of administration amounted cholesterol from 1 to 90 days in subgroup A and 1 to 120 days in subgroup B. 2. After 30 days from the initiation of administration of cholesterol vitamin D3 (cholecalciferol) in a dose of 0.256 ml/kg was added to the diet of animals to enhance aortic lipidosis. Cholecalciferol was administered intragastrically via a probe from 31 till 60 days (Scheme A and B). […] In order to gain atherosclerotic lesions in aorta and atherosclerosis induction time reduction the animals were administered a dose of epinephrineequal to 0.04 mg/kg intravenously since 31 till 60 every five days (Scheme A and B).
Animal body weight was measured in accordance with standard procedures prior to the study, then—weekly (for calculating the volume of administration of the test compound and the reference drug) and immediately before euthanasia (on days 60 and 120)—to calculate the weight gain.
The administration was carried out intragastrically in accordance with standard procedures using atraumatic probe according to two treatment regimens every day at the same time.

[5] = Mass coefficients of liver and pancreas of rabbits; format: in vivo, male rabbits of Californian breed; settings: for Mass ratios, M ± SEM, Liver / Mass ratios, M ± SEM, Pancreas: dose 100 mg; for pancreatic mass coefficients relative to the control group: rosuvastatin 40 mg, AGA 100 mg
[6] = Day 30 of treatment (Day 60 of study)
[7] = Day 60 of treatment (Day 90 of study)
[8] = Day 30 of treatment (Day 60 of study), dose 108 mg
[9] = blood, Day 60 of the treatment (Day 90 of the study), RV + AGA 10 + 108 mg, RV 10 mg, AGA 108 mg
[10] = blood, Day 60 of the treatment (Day 90 of the study), SV + AGA 20 + 108 mg, SV 20 mg, AGA 108 mg
[11] = (organ weight/animal body weight)×100%, Day 90 of study, dose 108 mg
[12] = M ± m, RV + AGA 10 + 108 mg, RV 10 mg, AGA 108 mg
[13] = blood, Day 60 of the treatment (Day 90 of the study), PV + GtA 40 + 108 mg, PV 20 mg, GtA 108 mg
[14] = M ± m, PV + GtA 40 + 108 mg, PV 40 mg, GtA 108 mg
[15] = blood, Day 60 of the treatment (Day 90 of the study), LV + SGA 20 + 108 mg, LV 20 mg, SGA 108 mg
[16] = M ± m, LV + SGA 20 + 108 mg, LV 20 mg, SGA 108 mg

In the case of CC1(C)[C@@H](O[C@H]2O[C@H](C(=O)O)[C@@H](O)[C@H](O)[C@H]2O[C@@H]2O[C@H](C(=O)O)[C@@H](O)[C@H](O)[C@H]2O)CC[C@]2(C)[C@H]3C(=O)C=C4[C@@H]5C[C@@](C)(C(=O)O)CC[C@]5(C)CC[C@@]4(C)[C@]3(C)CC[C@@H]12.N [AGA, Monoammonium glycyrrhizinate], the “HDL CHS” value [1, 6] is reported as 0.53 ± 0.05 mmol/L, the “LDL CHS” value [1, 6] is reported as 4.40 ± 0.4 mmol/L and the TG [1, 6] is reported as 1.5 ± 0.11 mmol/L. For the same compound, the “Total CHS” value [1, 6] was 5.8 ± 0.5 mmol/L, the “HDL CHS” value [1, 7] was 0.63 ± 0.05 mmol/L and the “LDL CHS” value [1, 7] was 3.80 ± 0.3 mmol/L. The TG [1, 7] was 1.30 ± 0.12 mmol/L, the “Total CHS” value [1, 7] was 4.5 ± 0.4 mmol/L and the ALT [2, 8] was 98 U/l. It also gave an AST [2, 8] of 130 U/l, an Amylase [2, 8] of 620 U/l and a Bilirubin direct [2, 8] of 2.1 mg/dL. The Bilirubin indirect [2, 8] was 1.8 mg/dL, the Bilirubin total [2, 8] was 4.1 mg/dL and the CPK [2, 8] was 310 U/l and 312 U/l. The Glucose [2, 8] was 112 mg/dL, the Potassium [2, 8] was 2.7 mM and the Sodium [2, 8] was 120 mmol. It also gave a Urea [2, 8] of 6.8 mmol/L, an ALT [2, 9] of 100 U/l and an AST [2, 9] of 131 U/l. The Amylase [2, 9] was 600 U/l, the Bilirubin direct [2, 9] was 2.3 mg/dL and the Bilirubin indirect [2, 9] was 1.9 mg/dL. It also gave a Bilirubin total [2, 9] of 2.9 mg/dL, a CPK [2, 9] of 310 U/l and a Glucose [2, 9] of 110 mg/dL. The Potassium [2, 9] was 3.2 mM, the Sodium [2, 9] was 122 mmol and the Urea [2, 9] was 5.5 mmol/L. It also gave an ALT [2, 10] of 100 U/l, an AST [2, 10] of 131 U/l and an Amylase [2, 10] of 600 U/l. The Bilirubin direct [2, 10] was 2.3 mg/dL, the Bilirubin indirect [2, 10] was 1.9 mg/dL and the Bilirubin total [2, 10] was 2.9 mg/dL. For the same compound, the CPK [2, 10] was 310 U/l, the Glucose [2, 10] was 110 mg/dL and the Potassium [2, 10] was 3.2 mM. For the same compound, the Sodium [2, 10] was 122 mmol, the Urea [2, 10] was 5.5 mmol/L and the “weight coefficient, Pancreas” value [3, 11] was 0.21 ± 0.01^2. The “weight coefficient, Kidneys” value [3, 11] was 0.81 ± 0.02, the “weight coefficient, Liver” value [3, 11] was 4.40 ± 0.09 and the “weight coefficient, Pancreas” value [3, 12] was 0.22 ± 0.01^2. The “weight coefficient, Kidneys” value [3, 12] was 0.81 ± 0.01, the “weight coefficient, Liver” value [3, 12] was 4.41 ± 0.08 and the Body weight ([4]; Day 0 (Before the study), dose group 100 mg (Table 37)) was 2936 ± 150 g. The Body weight ([4]; Day 28 (in the setting of pathology without treatment), dose group 100 mg (Table 37)) was 3369 ± 168 g, the Body weight ([4]; Day 90 (in the setting of pathology with treatment), dose 100 mg (Table 37)) was 3955 ± 119 g and the “body weight versus control animals” value ([4]; Scheme B, day 120, rosuvastatin+AGA 20+200 mg, atorvastatin+AGA 20+100 mg, AGA 100 mg) was “significantly lower”. For the same compound, the “Body weight, M ± SEM, Day 120 (in the setting of pathology with treatment)” value ([4]; Scheme B, dose 100 mg) was 4150 ± 144^2 g, the “Body weight, M ± SEM, Day 0 (Before the study)” value ([4]; Scheme B, dose 100 mg, baseline) was 2809 ± 145 g and the “Body weight, M ± SEM, Day 56 (in the setting of pathology without treatment)” value ([4]; Scheme B, dose 100 mg, before treatment) was 3569 ± 164 g. For the same compound, the “Mass ratios, M ± SEM, Liver” value ([5]; Scheme A) was 3.3 ± 0.1, the “Mass ratios, M ± SEM, Pancreas” value ([5]; Scheme A) was 0.05 ± 0.003 and the “pancreatic mass coefficients relative to the control group” value ([5]; Scheme A) was “Statistically significant decrease”. For the same compound, the “Mass ratios, M ± SEM, Liver” value ([5]; Scheme B) was 3.0 ± 0.2, the “Mass ratios, M ± SEM, Pancreas” value ([5]; Scheme B) was 0.06 ± 0.004^ and the “pancreatic mass coefficients relative to the control group” value ([5]; Scheme B) was “statistically significant decrease”.

With CC1(C)[C@@H](O)CC[C@]2(C)[C@H]3C(=O)C=C4[C@@H]5C[C@@](C)(C(=O)O)CC[C@]5(C)CC[C@@]4(C)[C@]3(C)CC[C@@H]12 [GtA, (2S,4aS,6aS,6bR,8aR,10S,12aS,12bR,14bR)-10-hydroxy-2,4a,6a,6b,9,9,12a-heptamethyl-13-oxo-1,2,3,4,4a,5,6,6a,6b,7,8,8a,9,10,11,12,12a,12b,13,14b-icosahydropicene-2-carboxylic acid] the “HDL CHS” value [1, 6] was 0.51 ± 0.04 mmol/L, the “LDL CHS” value [1, 6] was 4.40 ± 0.4 mmol/L and the TG [1, 6] was 1.6 ± 0.11 mmol/L. The “Total CHS” value [1, 6] was 4.9 ± 0.5 mmol/L, the “HDL CHS” value [1, 7] was 0.61 ± 0.03 mmol/L and the “LDL CHS” value [1, 7] was 4.24 ± 0.4 mmol/L. The TG [1, 7] was 1.5 ± 0.11 mmol/L, the “Total CHS” value [1, 7] was 4.5 ± 0.5 mmol/L and the ALT [2, 8] was 97 U/l. It also gave an AST [2, 8] of 130 U/l, an Amylase [2, 8] of 622 U/l and a Bilirubin direct [2, 8] of 1.1 mg/dL. It also gave a Bilirubin indirect [2, 8] of 1.7 mg/dL, a Bilirubin total [2, 8] of 3.2 mg/dL and a CPK [2, 8] of 390 U/l. The Glucose [2, 8] was 119 mg/dL, the Potassium [2, 8] was 2.8 mM and the Urea [2, 8] was 6.5 mmol/L. For the same compound, the ALT [2, 13] was 101 U/l, the AST [2, 13] was 120 U/l and the Amylase [2, 13] was 599 U/l. The Bilirubin direct [2, 13] was 1.2 mg/dL, the Bilirubin indirect [2, 13] was 1.8 mg/dL and the Bilirubin total [2, 13] was 2.7 mg/dL. The CPK [2, 13] was 300 U/l, the Glucose [2, 13] was 112 mg/dL and the Potassium [2, 13] was 3.1 mM. The Urea [2, 13] was 5.5 mmol/L, the “weight coefficient, Pancreas” value [3, 14] was 0.21 ± 0.01^2 and the “weight coefficient, Kidneys” value [3, 14] was 0.80 ± 0.02. The “weight coefficient, Liver” value [3, 14] was 4.43 ± 0.10.

With CC1(C)[C@@H](O[C@H]2O[C@H](C(=O)O)[C@@H](O)[C@H](O)[C@H]2O[C@@H]2O[C@H](C(=O)O)[C@@H](O)[C@H](O)[C@H]2O)CC[C@]2(C)[C@H]3C(=O)C=C4[C@@H]5C[C@@](C)(C(=O)O)CC[C@]5(C)CC[C@@]4(C)[C@]3(C)CC[C@@H]12.[Na+] [SGA, sodium glycyrrhizinate] the “HDL CHS” value [1, 6] was 0.53 ± 0.04 mmol/L, the “LDL CHS” value [1, 6] was 4.30 ± 0.41 mmol/L and the TG [1, 6] was 1.3 ± 0.11 mmol/L. For the same compound, the “Total CHS” value [1, 6] was 5.0 ± 0.4 mmol/L, the “HDL CHS” value [1, 7] was 0.63 ± 0.03 mmol/L and the “LDL CHS” value [1, 7] was 4.00 ± 0.3 mmol/L. The TG [1, 7] was 1.6 ± 0.11 mmol/L, the “Total CHS” value [1, 7] was 5.0 ± 0.4 mmol/L and the ALT [2, 8] was 91 U/l. The AST [2, 8] was 125 U/l, the Amylase [2, 8] was 600 U/l and the Bilirubin direct [2, 8] was 3.0 mg/dL. For the same compound, the Bilirubin indirect [2, 8] was 1.2 mg/dL, the Bilirubin total [2, 8] was 4.3 mg/dL and the CPK [2, 8] was 308 U/l. For the same compound, the Glucose [2, 8] was 110 mg/dL, the Potassium [2, 8] was 2.5 mM and the Sodium [2, 8] was 132 mmol. For the same compound, the Urea [2, 8] was 6.8 mmol/L, the ALT [2, 15] was 102 U/l and the AST [2, 15] was 123 U/l. For the same compound, the Amylase [2, 15] was 603 U/l, the Bilirubin direct [2, 15] was 2.0 mg/dL and the Bilirubin indirect [2, 15] was 1.9 mg/dL. It also gave a Bilirubin total [2, 15] of 2.9 mg/dL, a CPK [2, 15] of 331 U/l and a Glucose [2, 15] of 120 mg/dL. It also gave a Potassium [2, 15] of 3.2 mM, a Sodium [2, 15] of 121 mmol and a Urea [2, 15] of 5.2 mmol/L. For the same compound, the “weight coefficient, Pancreas” value [3, 16] was 0.22 ± 0.01^2, the “weight coefficient, Kidneys” value [3, 16] was 0.81 ± 0.02 and the “weight coefficient, Liver” value [3, 16] was 4.42 ± 0.10.
